In US8906904B2, “Alkoxy pyrazoles as soluble guanylate cyclase activators” (Boehringer Ingelheim International GmbH, priority 2012, dated 2014):

Columns and labels:
[1] = human liver microsome (HLM) metabolic stability assay; type: in vitro ADME; conditions: human liver microsomes; % hepatic blood flow calculated from t1/2
Summary of the method: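 Compounds at 1 uM incubated with human liver microsomes plus NADPH at 37° C., sampled at 0, 5, 15, 30 and 60 min into cold acetonitrile and quantified by LC/MS/MS. t½ from the slope of ln % remaining vs time; CLint, CLh and % Qh derived from it (n=1).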

[2] = biological target: T1, human soluble guanylate cyclase alpha 1 and beta 1 subunits (sGC) (Homo sapiens, UniProt Q02108+Q02153); assay: sGC cellular activator assay (cGMP, HTRF); type: cell-based; conditions: CHO cells stably expressing human sGC alpha 1/beta 1, preincubated with 40 microM ODQ; cGMP readout; assay run with and without 50% human serum, Table 2 does not say which
T1 construct: expressed in transfected cells; host or cells: Chinese hamster ovary (CHO) cells, stably transfected
T1 sequence (Q02108 1-690): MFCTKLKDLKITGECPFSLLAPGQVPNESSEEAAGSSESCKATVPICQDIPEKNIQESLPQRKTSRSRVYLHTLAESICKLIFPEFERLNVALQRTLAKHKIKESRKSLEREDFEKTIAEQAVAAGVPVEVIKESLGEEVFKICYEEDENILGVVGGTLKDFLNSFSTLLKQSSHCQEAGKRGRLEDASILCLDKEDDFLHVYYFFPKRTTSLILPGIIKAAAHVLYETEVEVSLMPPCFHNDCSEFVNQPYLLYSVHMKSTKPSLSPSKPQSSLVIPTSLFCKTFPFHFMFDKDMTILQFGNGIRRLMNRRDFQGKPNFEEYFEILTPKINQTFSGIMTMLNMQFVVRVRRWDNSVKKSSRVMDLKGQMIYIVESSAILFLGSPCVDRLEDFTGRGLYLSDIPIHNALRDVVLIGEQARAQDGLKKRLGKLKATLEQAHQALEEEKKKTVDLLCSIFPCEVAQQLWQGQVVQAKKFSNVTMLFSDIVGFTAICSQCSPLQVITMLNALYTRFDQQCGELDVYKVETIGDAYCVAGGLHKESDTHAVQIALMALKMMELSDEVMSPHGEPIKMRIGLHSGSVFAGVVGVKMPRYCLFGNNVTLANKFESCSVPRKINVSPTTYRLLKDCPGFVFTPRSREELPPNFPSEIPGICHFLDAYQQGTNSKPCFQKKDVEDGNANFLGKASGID
T1 sequence (Q02153 1-619): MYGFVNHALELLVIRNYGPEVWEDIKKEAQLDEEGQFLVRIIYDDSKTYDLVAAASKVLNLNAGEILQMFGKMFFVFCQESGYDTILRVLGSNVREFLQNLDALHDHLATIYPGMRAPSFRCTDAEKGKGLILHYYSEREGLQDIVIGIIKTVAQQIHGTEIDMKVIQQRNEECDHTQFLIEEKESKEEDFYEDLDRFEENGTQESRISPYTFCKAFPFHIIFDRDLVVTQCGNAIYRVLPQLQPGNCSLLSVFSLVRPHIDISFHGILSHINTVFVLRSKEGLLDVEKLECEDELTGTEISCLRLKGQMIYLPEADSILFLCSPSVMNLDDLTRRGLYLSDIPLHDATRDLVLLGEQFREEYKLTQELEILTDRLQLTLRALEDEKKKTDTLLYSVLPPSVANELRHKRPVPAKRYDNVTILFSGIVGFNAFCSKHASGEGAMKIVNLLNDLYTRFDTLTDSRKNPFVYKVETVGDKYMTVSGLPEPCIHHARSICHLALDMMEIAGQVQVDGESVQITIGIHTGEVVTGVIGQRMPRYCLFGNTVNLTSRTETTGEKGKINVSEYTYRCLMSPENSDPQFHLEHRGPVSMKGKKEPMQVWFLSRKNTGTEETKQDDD
Summary of the method: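 First, CHO-sGC (human α1β1) cells get 1 h ODQ at 40 microM with IBMX and 0.1% BSA. Finally, cGMP is quantified by HTRF and EC50 computed.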

SMILES | HLM (% Qh) [1] [% Qh] | EC50 [2] [nM]
CCOc1c(C(=O)O)cnn1-c1cccc(-c2cccc(C)c2OCc2ccc3c(c2C)CCN(CC2(F)COC2)C3)n1 [Compound 208] | <24 | 20
COc1c(C(=O)O)cnn1-c1cccc(-c2ccccc2OCc2ccc3c(c2)CCN(C2CCOCC2)C3)n1 [Compound 209] | <24 | 200
CCOc1c(C(=O)O)cnn1-c1cccc(-c2cccc(C)c2OCc2cc(C)c3c(c2)CCN(C(C)COC)C3)n1 (stereo not shown) [Compound 210] | <24 | 19
CCOc1c(C(=O)O)cnn1-c1cccc(-c2cccc(C)c2OCc2ccc3c(c2C)CCN(C[C@@H]2COCCO2)CC3)n1 [Compound 211] | <24 | 30
CCOc1c(C(=O)O)cnn1-c1cccc(-c2cccc(C)c2OCc2ccc3c(c2C)CCN(C[C@H]2COCCO2)CC3)n1 [Compound 212] | <24 | 36
CCOc1c(C(=O)O)cnn1-c1cccc(-c2cccc(C)c2OCc2ccc3c(c2)CCN(C2COC2)CC3)n1 [Compound 213] | <24 | 39
CCOc1c(C(=O)O)cnn1-c1cccc(-c2cccc(C)c2OCc2ccc3c(c2C)CCN(C[C@H]2CCCCO2)CC3)n1 [Compound 214] | <24 | 30
CCOc1c(C(=O)O)cnn1-c1cccc(-c2cccc(C)c2OCc2ccc3c(c2C)CCN(C[C@@H]2CCCCO2)CC3)n1 [Compound 215] | <24 | 37
COc1c(C(=O)O)cnn1-c1cccc(-c2cccc(C)c2OCc2ccc3c(c2)C(C)(C)CN(C2CCOC2)C3)n1 (stereo not shown) [Compound 217] | 89 | 35
COc1c(C(=O)O)cnn1-c1cccc(-c2cccc(C)c2OCc2ccc3c(c2)C(C)(C)CN(C2CCCOC2)C3)n1 (stereo not shown) [Compound 218] | 89 | 62
COc1c(C(=O)O)cnn1-c1cccc(-c2cccc(C)c2OCc2ccc3c(c2)C(C)(C)CN(CC2COCCO2)C3)n1 (stereo not shown) [Compound 219] | 89 | 140
CCOc1c(C(=O)O)cnn1-c1cccc(-c2cccc(C)c2OCc2ccc3c(c2OC)CCN(C2CCOCC2)C3)n1 [Compound 220] | <24 | 150
CCOc1c(C(=O)O)cnn1-c1cccc(-c2cccc(C)c2OCc2ccc3c(c2OC)CCN(C2COC2)C3)n1 [Compound 221] | <24 | 210
CCOc1c(C(=O)O)cnn1-c1cccc(-c2cccc(C)c2OCc2ccc3c(c2C)CCN(C[C@@H]2CCO2)CC3)n1 [Compound 228] | 44 | 14
COc1c(C(=O)O)cnn1-c1cccc(-c2cccc(C)c2OCc2ccc3c(c2F)CCN(C[C@H]2COCCO2)C3)n1 [Compound 234] | <24 | 13
CCOc1c(C(=O)O)cnn1-c1cccc(-c2cccc(C)c2OCc2ccc3c(c2C)CCN(C[C@@H]2CCCO2)CC3)n1 [Compound 235] | 29 | 20
CCOc1c(C(=O)O)cnn1-c1cccc(-c2cccc(C)c2OCc2ccc3c(c2C)CCN(C[C@@H]2CCCCO2)C3)n1 [Compound 236] | <24 | 28

Continued by falling EC50 [2], values first:

HLM (% Qh) [1] [% Qh] | EC50 [2] [nM] | SMILES
25 | 13 | CCOc1c(C(=O)O)cnn1-c1cccc(-c2cccc(C)c2OCc2ccc3c(c2C)CCN([C@@H]2CCOC2)CC3)n1 [Compound 227]
52 | 12 | CCOc1c(C(=O)O)cnn1-c1cccc(-c2cccc(C)c2OCc2ccc3c(c2C)CCN(C[C@H]2CCO2)CC3)n1 [Compound 226]
26 | 11 | CCOc1c(C(=O)O)cnn1-c1cccc(-c2cccc(C)c2OCc2ccc3c(c2C)CCN(C[C@H]2CCCO2)CC3)n1 [Compound 233]
<24 | 11 | COc1c(C(=O)O)cnn1-c1cccc(-c2cccc(C)c2OCc2cc(C)c3c(c2)CCN(C2CCOC2)C3)n1 (stereo not shown) [Compound 242]
<24 | 10 | CCOc1c(C(=O)O)cnn1-c1cccc(-c2cccc(C)c2OCc2ccc3c(c2C)CCN([C@H]2CCOC2)CC3)n1 [Compound 225]
<24 | 9.5 | CCOc1c(C(=O)O)cnn1-c1cccc(-c2cccc(C)c2OCc2ccc3c(c2C)CCN(C[C@H]2CCCCO2)C3)n1 [Compound 232]
<24 | 9.2 | COc1c(C(=O)O)cnn1-c1cccc(-c2cccc(C)c2OCc2ccc3c(c2C)CCN([C@@H]2CCOC2)CC3)n1 [Compound 207]
<24 | 8.5 | COc1c(C(=O)O)cnn1-c1cccc(-c2cccc(C)c2OCc2ccc3c(c2C)CCN(C[C@@H]2CCCO2)CC3)n1 [Compound 223]
<24 | 8 | CCOc1c(C(=O)O)cnn1-c1cccc(-c2cccc(C)c2OCc2cc(C)c3c(c2)CCN(C2CCOC2)C3)n1 (stereo not shown) [Compound 241]
<24 | 7.9 | COc1c(C(=O)O)cnn1-c1cccc(-c2cccc(C)c2OCc2cc(C)c3c(c2)CCN(CC2COCCO2)C3)n1 (stereo not shown) [Compound 240]
25 | 6.5 | COc1c(C(=O)O)cnn1-c1cccc(-c2cccc(C)c2OCc2cc(C)c3c(c2)CCN(CC2(C)COC2)C3)n1 [Compound 239]
<24 | 5.4 | COc1c(C(=O)O)cnn1-c1cccc(-c2cccc(C)c2OCc2ccc3c(c2C)CCN(C[C@H]2CCCO2)CC3)n1 [Compound 222]
<24 | 5.1 | COc1c(C(=O)O)cnn1-c1cccc(-c2cccc(C)c2OCc2ccc3c(c2C)CCN(C2CCCOC2)C3)n1 (stereo not shown) [Compound 238]
<24 | 4.9 | COc1c(C(=O)O)cnn1-c1cccc(-c2cccc(C)c2OCc2cc(C)c3c(c2)CCN(C2CCCOC2)C3)n1 (stereo not shown) [Compound 237]
<24 | 4.6 | COc1c(C(=O)O)cnn1-c1cccc(-c2cccc(C)c2OCc2ccc3c(c2F)CCN(C[C@@H]2COCCO2)C3)n1 [Compound 231]
<24 | 4.5 | COc1c(C(=O)O)cnn1-c1cccc(-c2cccc(C)c2OCc2ccc3c(c2C)CCN(C[C@@H]2COCCO2)CC3)n1 [Compound 204]
<24 | 4.4 | COc1c(C(=O)O)cnn1-c1cccc(-c2cccc(C)c2OCc2ccc3c(c2C)CCN(C[C@H]2COCCO2)CC3)n1 [Compound 203]
34 | 3.9 | COc1c(C(=O)O)cnn1-c1cccc(-c2cccc(C)c2OCc2cc(F)c3c(c2)CCN(C[C@H]2CCCCO2)C3)n1 [Compound 229]
